Experiments:
EGR-1 = EGR-1 (Homo sapiens, UniProt P18146); assay: EGR-1 DNA binding activity assay (EDBA); design: made in house; details: EGR-1 DNA binding inhibitory activity; EGR-1 overexpressing cell lysate; absorbance at 450 nm; compound concentration not given
Procedure: In this experiment, the inhibitory effect of the compounds of the present invention on EGR-1 binding activity was evaluated using an EGR-1 DNA binding activity assay (EDBA).
Single-stranded sense and antisense oligonucleotides of the following EGR-1 binding sequence (EBS) were prepared by outsourcing to Bioneer Co., Ltd. (Daejeon, Korea). In this case, the 5'-end of the sense oligonucleotide was labeled with biotin. The sense and antisense oligonucleotides were heated at 95 °C for 5 minutes and then left overnight at room temperature to hybridize the sense and antisense oligonucleotides. Hereinafter, the hybridized sense and antisense oligonucleotides are referred to as biotin-EBS. • Sense sequence: biotin-5'-[…]-3' • Antisense sequence: 5'-[…]-3'
Avidin protein was coated on a 96-well plate (purchased from Thermo Fisher Scientific), and biotin-EBS was added to the plate at a concentration of 0.5 pmol/50 µL/well, followed by reaction at 37 °C for 1 hour to allow biotin-EBS oligonucleotide to be attached to the plate. After washing three times with phosphate buffer saline containing 0.05% Tween 20 (PBS/Tween 20) to remove unattached biotin-EBS oligonucleotides, 200 µL of PBS/Tween 20 solution containing 2% bovine serum albumin (BSA) was added to each well, followed by reaction at 37 °C for 1 hour to block the surface of the plate where no oligonucleotide was attached.
The solution containing the sample compound and the EGR-1 protein was added to the biotin-EBS oligonucleotide coated plate prepared in step (2).
The compound sample (1 µL) was reacted with the EGR-1 overexpressing cell lysate containing 10 mM Tris, pH 7.5, 50 mM KCl, 2% BSA and 8% glycerol at room temperature for 30 minutes, and then added to a reaction well coated with biotin-EBS and further reacted at room temperature for one hour. After washing three times with PBS/Tween 20 solution, an EGR-1 antibody was added to the PBS solution supplemented with 2% BSA and 5 mM NaCl in an amount of 50 µL per each well. The mixture was incubated at room temperature for one hour, washed three times with PBS/Tween 20 solution, and then treated with horseradish peroxidase-conjugated secondary antibody (Goat anti-rabbit IgG antibody, Cell Signaling Technology company, Danvers, Mass., USA) diluted by 1:1000 at room temperature for one hour. After washing five times with PBS/Tween 20 solution, a substrate tetramethylbenzidine solution was added to each well in an amount of 50 µL. After reacting for 5 minutes, the reaction was stopped by adding 100 µL of 2 N sulfuric acid solution. The DNA binding inhibitory activity of EGR-1 was measured by absorbance at 450 nm according to Equation 1 below. EGR-1 DNA binding inhibitory activity (%) = 100−{(As/Ap)×100} [formula]
As: absorbance of a sample prepared by reacting an EGR-1-overexpressing cell lysate with the compound.
Ap: absorbance of the sample treated only with EGR-1-overexpressing cell lysate.

[1] = test system: animal model of atopic dermatitis; assay: DNCB-induced animal model of atopic dermatitis, topical application; type: in vivo, BALB/c mice; details: 0.1% applied to ear

Sequence of EGR-1 (P18146 whole entry): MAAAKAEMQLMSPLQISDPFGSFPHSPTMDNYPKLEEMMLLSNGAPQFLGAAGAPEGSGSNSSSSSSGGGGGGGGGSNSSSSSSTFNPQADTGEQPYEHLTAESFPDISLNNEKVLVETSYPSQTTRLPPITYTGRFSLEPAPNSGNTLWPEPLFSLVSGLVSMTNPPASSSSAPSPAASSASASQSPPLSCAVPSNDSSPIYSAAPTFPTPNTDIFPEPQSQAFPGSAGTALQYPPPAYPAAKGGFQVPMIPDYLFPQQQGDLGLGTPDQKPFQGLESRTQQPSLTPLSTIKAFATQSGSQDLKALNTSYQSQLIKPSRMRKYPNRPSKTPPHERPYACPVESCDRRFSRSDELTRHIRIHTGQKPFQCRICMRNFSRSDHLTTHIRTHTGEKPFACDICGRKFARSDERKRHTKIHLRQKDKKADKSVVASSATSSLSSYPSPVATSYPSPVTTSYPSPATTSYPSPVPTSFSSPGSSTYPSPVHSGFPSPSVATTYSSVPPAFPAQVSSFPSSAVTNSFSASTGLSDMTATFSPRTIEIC

Structure (SMILES) | Inhibition Rate (%) (EGR-1) | also measured
O=C1Nc2cc(Br)ccc2/C1=N/NC(=S)Nc1ccc([N+](=O)[O-])cc1 [Compound 58, (Z)-2-(6-bromo-2-oxoindolin-3-ylidene)-N-(4-nitrophenyl)hydrazinethioamide] | 46.97 | –
O=C1Nc2cccc(Cl)c2/C1=N/NC(=S)Nc1ccccc1 [Compound 59, (Z)-2-(4-chloro-2-oxoindolin-3-ylidene)-N-phenylhydrazinethioamide] | 40.17 | –
O=C1Nc2cc(Cl)ccc2/C1=N/NC(=S)Nc1ccccc1 [Compound 60, (Z)-2-(6-chloro-2-oxoindolin-3-ylidene)-N-phenylhydrazinethioamide] | 48.07 | –
COc1ccccc1NC(=S)N/N=C1\C(=O)Nc2cccc(Cl)c21 [Compound 61, (Z)-2-(4-chloro-2-oxoindolin-3-ylidene)-N-(2-methoxyphenyl)hydrazinethioamide] | 43.03 | –
O=C1Nc2ccc(F)cc2/C1=N/NC(=S)Nc1cccc(C(F)(F)F)c1 [Compound 62, (Z)-2-(5-fluoro-2-oxoindolin-3-ylidene)-N-(3-(trifluoromethyl)phenyl)hydrazinethioamide] | 10.00 | –
O=C1Nc2ccc(F)cc2/C1=N/NC(=S)NCc1ccccc1 [Compound 63, (Z)-N-benzyl-2-(5-fluoro-2-oxoindolin-3-ylidene)hydrazinethioamide] | 48.77 | –
Cc1cccc(NC(=S)N/N=C2\C(=O)Nc3ccc(F)cc32)c1 [Compound 64, (Z)-2-(5-fluoro-2-oxoindolin-3-ylidene)-N-(m-tolyl)hydrazinethioamide] | 37.90 | –
O=C1Nc2c(F)cccc2/C1=N/NC(=S)Nc1ccc([N+](=O)[O-])cc1 [Compound 65, (Z)-2-(7-fluoro-2-oxoindolin-3-ylidene)-N-(4-nitrophenyl)hydrazinethioamide] | 43.03 | –
COc1ccc2c(c1)NC(=O)/C2=N\NC(=S)Nc1cccc(C(F)(F)F)c1 [Compound 66, (Z)-2-(6-methoxy-2-oxoindolin-3-ylidene)-N-(3-(trifluoromethyl)phenyl)hydrazinethioamide] | 11.70 | –
COc1ccc2c(c1)NC(=O)/C2=N\NC(=S)Nc1ccc(F)cc1 [Compound 67, (Z)-N-(4-fluorophenyl)-2-(6-methoxy-2-oxoindolin-3-ylidene)hydrazin-1-carbothioamide] | 25.90 | –
COc1ccc2c(c1)NC(=O)/C2=N\NC(=S)Nc1ccc(Br)cc1 [Compound 68, (Z)-N-(4-bromophenyl)-2-(6-methoxy-2-oxoindolin-3-ylidene)hydrazin-1-carbothioamide] | 17.80 | –
COc1ccc2c(c1)NC(=O)/C2=N\NC(=S)NCc1ccccc1 [Compound 69, (Z)-N-benzyl-2-(6-methoxy-2-oxoindolin-3-ylidene)hydrazin-1-carbothioamide] | 14.17 | –
Cc1ccc2c(c1)/C(=N/NC(=S)Nc1ccc(Br)cc1)C(=O)N2 [Compound 70, (Z)-N-(4-bromophenyl)-2-(5-methyl-2-oxoindolin-3-ylidene)hydrazinethioamide] | 29.60 | –
Cc1ccc2c(c1)/C(=N/NC(=S)Nc1ccc(C#N)cc1)C(=O)N2 [Compound 71, (Z)-N-(4-cyanophenyl)-2-(5-methyl-2-oxoindolin-3-ylidene)hydrazinethioamide] | 29.93 | –
Cc1ccc2c(c1)/C(=N/NC(=S)Nc1ccccc1)C(=O)N2 [Compound 72, (Z)-2-(5-methyl-2-oxoindolin-3-ylidene)-N-phenylhydrazinethioamide] | 19.57 | –
CCNC(=S)N/N=C1\C(=O)Nc2ccc(C)cc21 [Compound 73, (Z)-N-ethyl-2-(5-methyl-2-oxoindolin-3-ylidene)hydrazinethioamide] | 29.80 | –
Cc1ccc2c(c1)/C(=N/NC(=S)NCc1ccccc1)C(=O)N2 [Compound 74, (Z)-N-benzyl-2-(5-methyl-2-oxoindolin-3-ylidene)hydrazinethioamide] | 40.60 | –
Cc1cccc(NC(=S)N/N=C2\C(=O)Nc3ccc(C)cc32)c1 [Compound 75, (Z)-2-(5-methyl-2-oxoindolin-3-ylidene)-N-(m-tolyl)hydrazinethioamide] | 39.27 | –
O=C1Nc2ccc(OC(F)(F)F)cc2/C1=N/NC(=S)Nc1ccccc1 [Compound 76, (Z)-2-(2-oxo-5-(trifluoromethoxy)indolin-3-ylidene)-N-phenylhydrazinethioamide] | 17.23 | –
O=C1Nc2ccc(OC(F)(F)F)cc2/C1=N/NC(=S)Nc1cccc([N+](=O)[O-])c1 [Compound 77, (Z)-N-(3-nitrophenyl)-2-(2-oxo-5-(trifluoromethoxy)indolin-3-ylidene)hydrazinethioamide] | 37.37 | –
O=C1Nc2ccc(OC(F)(F)F)cc2/C1=N/NC(=S)Nc1ccc(F)cc1 [Compound 78, (Z)-N-(4-fluorophenyl)-2-(2-oxo-5-(trifluoromethoxy)indolin-3-ylidene)hydrazinethioamide] | 33.93 | –
O=C1Nc2ccc(OC(F)(F)F)cc2/C1=N/NC(=S)Nc1ccc(Br)cc1 [Compound 79, (Z)-N-(4-bromophenyl)-2-(2-oxo-5-(trifluoromethoxy)indolin-3-ylidene)hydrazinethioamide] | 42.27 | –
C[C@@H]1CCN(C(=O)CC#N)C[C@@H]1N(C)c1ncnc2[nH]ccc12 [tofacitinib, Tofacitinib, reference compound] | – | epidermal thickness ([1]; day 22, H&E staining, normal 24.47±2.353, DNCB only 37.27±4.393): 27.09±1.719 µm; dermal thickness ([1]; day 22, H&E staining, normal 143.2±19.61, DNCB only 197.5±17.83): 154.5±11.32 µm; expression of filaggrin ([1]; immunofluorescence of skin tissue, FIG. 17B): recovered to a level similar to normal tissue; expression of TSLP ([1]; immunofluorescence of skin tissue, compared to positive control group, FIG. 17A): significantly decreased; expression of MPO (neutrophil marker) ([1]; immunohistochemistry, FIG. 16C): decreased similar to normal tissue; expression of F4/80 (macrophage marker) ([1]; immunohistochemistry, FIG. 16D): decreased similar to normal tissue; mast cell infiltration ([1]; toluidine blue staining, compared to the positive control group, FIG. 16A): significantly reduced; number of mast cells infiltrated ([1]; toluidine blue staining, normal 11±3, DNCB 38±6): 14±5 per 2.5 cm^2

Reference: patent publication EP4799619A1, “COMPOUND TARGETING EGR-1 AND USE THEREOF FOR TREATMENT OF ATOPIC DERMATITIS” (AgeraMedi, Inc., priority 2023, dated 2025)
